# Measurements as given in patent US20260000079A1, “COMPOSITIONS AND METHODS FOR MODULATING IMMUNITY IN PLANTS” (BOYCE THOMPSON INSTITUTE FOR PLANT RESEARCH, INC., priority 2019, published 2026).
# Tests used:
# [1] = test system: Arabidopsis wildtype and ibr10, ech2, ech2ibr10, or acx1acx5 mutants; format: in vivo, Arabidopsis thaliana; conditions: roots treated with 1 μM ascr #18
# Method: FIG. 3A provides a comparison of peroxisomal β-oxidation (pβo) pathways and associated enzymes involved in the conversion of indole-3-butyric acid (IBA)-to-indole acetic acid (IAA) in Arabidopsis and ascaroside biosynthesis in C. elegans. FIG. 3B provides LC-MS analysis of Arabidopsis seedlings treated with 1 μM ascr #18 for 24 hours before sample extraction, comparing ascr #9 production in wildtype and ibr10, ech2, ech2ibr10, or acx1acx5 mutants. FIG. 3C provides a comparison of ascaroside abundances in Arabidopsis wildtype and acx1acx5 roots treated with 1 μM ascr #18. Data are averages±SEM (n=5); n.d.=not detected. FIG. 3D provides RNAseq analysis of ten day-old Arabidopsis wildtype and acx1acx5 mutant roots, plotted as transcript abundance. Data are averages±s.d (n=6).
# Arabidopsis thaliana mutant genotypes in the Col-0 background, ibr10-1, ech2-1, ibr10-1ech2-1, and acx1-2acx5-1, were obtained from Rice University (Houston, TX) (Strader, et al. (2011) Plant Cell 23:984-999; Adham, et al. (2005) Plant J. 41:859-874).
# To test whether ascr #18 is metabolized via pβo in plants, Arabidopsis mutants impaired in key enzymes of this pathway were analyzed (FIG. 3B). […] In contrast, two other putative po genes, ibr10 and ech2, a putative enoyl-CoA hydratases (Strader, et al. (2011) Plant Cell 23:984-999; Adham, et al. (2005) Plant J. 41:859-874; Zolman, et al. (2008) Genetics 180(1): 237-51), are not required for ascr #18 metabolism in Arabidopsis. ACXs participate in the […] step of pβo by introducing α,β-unsaturation in the side-chain (Von Reuss, et al. (2012) J. Am. Chem. Soc. 134:1817-1824; Strader, et al. (2011) Plant Cell 23:984-999). […] These observations indicate that ascr #18 metabolism in plants into shorter-chained ascarosides proceeds via pβo, and that ACX1 and/or ACX5 are strictly required for chain shortening of ascr #10, whereas the first chain-shortening step from ascr #18 to ascr #10 may involve additional acyl-CoA oxidases.
# [2] = test system: Arabidopsis root exudates; experiment: LC-MS of root exudates of ascr #18-treated Arabidopsis seedlings; format: in vivo, Arabidopsis thaliana; conditions: for secretion of ascr #18 metabolites via roots: ascr #18-treated wildtype, 6 hours treatment
# Method: (§1) Data are average±SEM (n=6), n.d.=not detected. […] Exudates from approximately 40 seedlings were collected in distilled water and pooled. Abundances of ascarosides are shown as the peak area, as measured by LC-MS. Data are average±SEM (n=3); n.d.=not detected. FIGS. 5C and 5D show the relative abundances of ascarosides in root exudates of eight-day old tomato seedlings treated with 10 nM (FIG. 5C) or 1000 nM (FIG. 5D) ascr #18 for 6 hours. Exudates from approximately 10 seedlings were collected in distilled water and pooled. Abundances of ascarosides are shown as the peak area, as measured by LC-MS. Data are average±SEM (n=3); n.d.=not detected. FIG. 5E provides the relative abundances of ascr #10, ascr #1, and ascr #9 in the growth media of eight-day old tomato seedlings supplemented with 1 μM ascr #18. Ten-gram media samples were collected at different time points over a 48 hour period for metabolome extraction. Abundances of ascarosides are shown as the peak area, as measured by LC-MS.
# (§2) To test this possibility, root-secreted metabolites of ascr #18- and mock-treated Arabidopsis were compared (FIG. 5A). For this experiment, 10-day old Arabidopsis seedlings were treated in growth media supplemented with ascr #18 for 6 hours prior to collection of exudates from roots submerged in water. […] Analogous results were obtained in experiments with tomato roots (FIG. 5C, 5D).
# tomato root exudates = experiment: LC-MS of root exudates and growth media of ascr #18-treated tomato seedlings; format: in vivo, Solanum lycopersicum
# Method: as §1, §2
Compound,ascaroside levels in ascr #18-treated acx1acx5 mutant compared with wildtype [1],secretion of ascr #18 metabolites via roots [2],relative abundance among root-excreted ascr #18 metabolites (tomato root exudates),relative abundance among root-excreted ascr #18 metabolites ([2]; Arabidopsis),"ascarosides in root exudates of acx1acx5 ([2]; acx1acx5 seedlings, 10 nM ascr #18 for 6 hours)"
C[C@H](CCCCC(=O)O)O[C@@H]1O[C@@H](C)[C@H](O)C[C@H]1O [ascr #1],not detected,secretion,–,–,–
C[C@H](CCCCCCC(=O)O)O[C@@H]1O[C@@H](C)[C@H](O)C[C@H]1O [ascr #10],smaller amounts,secretion,least abundant,least abundant,detected
